The target in assay [1] is ATP synthase peripheral stalk subunit OSCP, mitochondrial (Homo sapiens) (UniProt P48047).
In assay [2] the target is Conserved oligomeric Golgi complex subunit 6 (Homo sapiens) (UniProt Q9Y2V7).
Assay [3] deals with Eukaryotic translation initiation factor 3 subunit D (Homo sapiens) (UniProt O15371).
Assay [4] concerns the target Citrate synthase, mitochondrial (Homo sapiens) (UniProt O75390).
Assay [5] deals with Dolichol-phosphate mannosyltransferase subunit 1 (Homo sapiens) (UniProt O60762).
Chain of Dolichol-phosphate mannosyltransferase subunit 1 (Homo sapiens) (O60762 whole entry): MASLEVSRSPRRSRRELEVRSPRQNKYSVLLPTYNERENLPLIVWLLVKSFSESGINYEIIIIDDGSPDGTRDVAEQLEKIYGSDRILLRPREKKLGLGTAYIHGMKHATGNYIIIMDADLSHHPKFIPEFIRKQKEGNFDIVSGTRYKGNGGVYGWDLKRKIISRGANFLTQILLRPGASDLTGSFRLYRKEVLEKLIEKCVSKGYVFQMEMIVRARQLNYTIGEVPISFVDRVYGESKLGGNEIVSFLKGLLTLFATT
In assay [6] the target is Probable rRNA-processing protein EBP2 (Homo sapiens) (UniProt Q99848).
Assay [7] addresses Trifunctional purine biosynthetic protein adenosine-3 (Homo sapiens) (UniProt P22102).
In assay [8] the target is La-related protein 1 (Homo sapiens) (UniProt Q6PKG0).
The target of assay [9] is Dolichyl-diphosphooligosaccharide--protein glycosyltransferase subunit MAGT1 (Homo sapiens) (UniProt Q9H0U3).
Assay [10] deals with N-acetylneuraminate-9-phosphate synthase (Homo sapiens) (UniProt Q9NR45).
In assay [11] the target is Palmitoyl-protein thioesterase 1 (Homo sapiens) (UniProt P50897).
Assay [12] deals with Small ribosomal subunit protein eS28 (Homo sapiens) (UniProt P62857).
Assay [13] addresses Reticulon-3 (Homo sapiens) (UniProt O95197).
For assay [14], the target named is Vacuole membrane protein 1 (Homo sapiens) (UniProt Q96GC9).
The species entered for assay [15] is Homo sapiens.
Assay [16] addresses Bone morphogenetic protein receptor type-1A (Homo sapiens) (UniProt P36894).
The target of assay [17] is Lysophosphatidylcholine acyltransferase 1 (Homo sapiens) (UniProt Q8NF37).
In assay [18] the target is Nucleosome assembly protein 1-like 4 (Homo sapiens) (UniProt Q99733).
Assay [19] addresses NUAK family SNF1-like kinase 2 (Homo sapiens) (UniProt Q9H093).
Assay [20] has as its target Polyadenylate-binding protein 4 (Homo sapiens) (UniProt Q13310).
For assay [21], the target named is Stearoyl-CoA desaturase (Homo sapiens) (UniProt O00767).
For assay [22], the target named is Serine/threonine-protein kinase 26 (Homo sapiens) (UniProt Q9P289).
Chain of Serine/threonine-protein kinase 26 (Homo sapiens) (Q9P289 2-416 limits assumed): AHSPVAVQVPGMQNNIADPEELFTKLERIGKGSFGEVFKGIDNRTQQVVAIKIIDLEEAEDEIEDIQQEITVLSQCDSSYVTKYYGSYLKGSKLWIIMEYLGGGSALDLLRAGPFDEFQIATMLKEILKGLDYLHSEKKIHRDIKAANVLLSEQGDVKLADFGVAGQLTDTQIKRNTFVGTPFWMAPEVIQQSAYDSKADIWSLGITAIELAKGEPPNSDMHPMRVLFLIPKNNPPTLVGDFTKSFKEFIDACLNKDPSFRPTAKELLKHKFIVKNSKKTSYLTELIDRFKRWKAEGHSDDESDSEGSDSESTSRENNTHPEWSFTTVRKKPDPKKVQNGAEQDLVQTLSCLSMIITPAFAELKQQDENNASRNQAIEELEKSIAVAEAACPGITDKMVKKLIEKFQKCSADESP
Assay [23] deals with Tubulin alpha-4A chain (Homo sapiens) (UniProt P68366).
Chain of Tubulin alpha-4A chain (Homo sapiens) (P68366 whole entry, looked up): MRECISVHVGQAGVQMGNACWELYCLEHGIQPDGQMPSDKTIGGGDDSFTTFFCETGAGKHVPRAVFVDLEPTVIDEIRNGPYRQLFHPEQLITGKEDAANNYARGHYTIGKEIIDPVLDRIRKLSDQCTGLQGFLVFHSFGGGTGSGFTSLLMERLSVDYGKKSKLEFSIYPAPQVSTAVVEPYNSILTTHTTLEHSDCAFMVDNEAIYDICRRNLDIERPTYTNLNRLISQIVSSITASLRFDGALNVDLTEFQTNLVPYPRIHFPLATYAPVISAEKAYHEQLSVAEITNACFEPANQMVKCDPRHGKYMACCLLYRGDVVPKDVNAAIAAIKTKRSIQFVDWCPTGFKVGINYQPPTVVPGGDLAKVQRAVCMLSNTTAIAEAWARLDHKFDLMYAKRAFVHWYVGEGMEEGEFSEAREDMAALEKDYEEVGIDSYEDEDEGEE
The target of assay [24] is Ubiquitin carboxyl-terminal hydrolase 39 (Homo sapiens) (UniProt Q53GS9).
The target in assay [25] is Non-selective voltage-gated ion channel VDAC2 (Homo sapiens) (UniProt P45880).
Chain of Non-selective voltage-gated ion channel VDAC2 (Homo sapiens) (P45880 whole entry): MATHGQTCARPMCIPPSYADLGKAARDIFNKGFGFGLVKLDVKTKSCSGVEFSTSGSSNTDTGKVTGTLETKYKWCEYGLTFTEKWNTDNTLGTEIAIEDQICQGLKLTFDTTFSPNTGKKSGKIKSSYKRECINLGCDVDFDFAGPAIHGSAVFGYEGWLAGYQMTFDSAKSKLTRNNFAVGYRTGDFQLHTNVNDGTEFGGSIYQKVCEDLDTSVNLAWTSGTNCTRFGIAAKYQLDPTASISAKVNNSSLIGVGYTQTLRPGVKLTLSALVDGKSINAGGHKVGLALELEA
The target in assay [26] is ATP-binding cassette sub-family F member 2 (Homo sapiens) (UniProt Q9UG63).
For assay [27], the target named is Uncharacterized aarF domain-containing protein kinase 5 (Homo sapiens) (UniProt Q3MIX3).
The target of assay [28] is BAG family molecular chaperone regulator 2 (Homo sapiens) (UniProt O95816).
Chain of BAG family molecular chaperone regulator 2 (Homo sapiens) (O95816 whole entry): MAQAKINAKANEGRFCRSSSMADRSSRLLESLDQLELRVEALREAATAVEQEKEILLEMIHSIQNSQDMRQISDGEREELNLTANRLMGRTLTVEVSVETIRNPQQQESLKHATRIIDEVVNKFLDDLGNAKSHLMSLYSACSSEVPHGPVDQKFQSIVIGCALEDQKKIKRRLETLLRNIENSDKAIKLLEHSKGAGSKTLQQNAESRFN
Assay [29] concerns the target Lipid scramblase CLPTM1L (Homo sapiens) (UniProt Q96KA5).
Assay [30] addresses N(G),N(G)-dimethylarginine dimethylaminohydrolase 1 (Homo sapiens) (UniProt O94760).
Assay [31] concerns the target DnaJ homolog subfamily C member 9 (Homo sapiens) (UniProt Q8WXX5).
The target in assay [32] is Echinoderm microtubule-associated protein-like 4 (Homo sapiens) (UniProt Q9HC35).
Chain of Echinoderm microtubule-associated protein-like 4 (Homo sapiens) (Q9HC35 whole entry): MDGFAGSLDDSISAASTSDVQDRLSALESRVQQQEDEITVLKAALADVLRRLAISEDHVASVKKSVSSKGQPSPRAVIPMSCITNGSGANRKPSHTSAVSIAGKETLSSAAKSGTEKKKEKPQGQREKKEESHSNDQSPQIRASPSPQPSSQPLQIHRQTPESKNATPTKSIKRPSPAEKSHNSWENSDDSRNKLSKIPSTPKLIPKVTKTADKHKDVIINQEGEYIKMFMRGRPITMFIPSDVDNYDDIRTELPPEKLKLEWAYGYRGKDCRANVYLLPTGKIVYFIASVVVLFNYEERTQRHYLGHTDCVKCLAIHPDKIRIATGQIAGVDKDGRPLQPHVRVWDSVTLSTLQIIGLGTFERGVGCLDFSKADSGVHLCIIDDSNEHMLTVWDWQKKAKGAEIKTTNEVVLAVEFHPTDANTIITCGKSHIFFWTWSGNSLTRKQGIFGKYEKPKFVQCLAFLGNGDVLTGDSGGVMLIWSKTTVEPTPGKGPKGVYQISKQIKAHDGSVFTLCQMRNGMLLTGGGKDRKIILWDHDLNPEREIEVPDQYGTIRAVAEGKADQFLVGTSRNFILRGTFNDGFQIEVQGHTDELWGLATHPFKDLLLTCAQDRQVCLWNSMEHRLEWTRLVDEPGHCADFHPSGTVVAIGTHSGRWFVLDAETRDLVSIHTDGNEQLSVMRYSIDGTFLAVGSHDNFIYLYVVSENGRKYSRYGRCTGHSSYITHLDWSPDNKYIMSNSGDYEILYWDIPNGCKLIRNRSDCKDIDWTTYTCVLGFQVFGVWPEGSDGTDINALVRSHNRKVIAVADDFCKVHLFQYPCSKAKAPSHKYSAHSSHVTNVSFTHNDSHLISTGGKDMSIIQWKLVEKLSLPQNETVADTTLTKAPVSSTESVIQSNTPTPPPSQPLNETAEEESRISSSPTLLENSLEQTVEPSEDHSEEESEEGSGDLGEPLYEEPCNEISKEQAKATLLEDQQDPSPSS
In assay [33] the target is Kelch-like protein 6 (Homo sapiens) (UniProt Q8WZ60).
In assay [34] the target is Nucleolar protein 58 (Homo sapiens) (UniProt Q9Y2X3).
In assay [35] the target is Glucocorticoid receptor (Homo sapiens) (UniProt P04150).
Assay [36] concerns the target Programmed cell death protein 2-like (Homo sapiens) (UniProt Q9BRP1).
The target of assay [37] is Periphilin-1 (Homo sapiens) (UniProt Q8NEY8).
Assay [38] addresses Parathymosin (Homo sapiens) (UniProt P20962).
For assay [39], the target named is E3 ubiquitin-protein ligase RBX1 (Homo sapiens) (UniProt P62877).
Chain of E3 ubiquitin-protein ligase RBX1 (Homo sapiens) (P62877 whole entry, looked up): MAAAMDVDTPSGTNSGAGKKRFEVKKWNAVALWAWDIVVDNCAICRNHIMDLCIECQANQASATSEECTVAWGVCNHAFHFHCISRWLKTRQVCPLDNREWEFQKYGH
The target in assay [40] is Mitochondrial 2-oxodicarboxylate carrier (Homo sapiens) (UniProt Q9BQT8).
Assay [41] concerns the target SWI/SNF-related matrix-associated actin-dependent regulator of chromatin subfamily A member 1 (Homo sapiens) (UniProt P28370).
For assay [42], the species on record is Homo sapiens. This is another data set of the same source.
Assay [43] concerns the target Signal recognition particle 19 kDa protein (Homo sapiens) (UniProt P09132).
Assay [44] concerns the target Testis-expressed protein 10 (Homo sapiens) (UniProt Q9NXF1).
In assay [45] the target is Ubiquitin-conjugating enzyme E2 G2 (Homo sapiens) (UniProt P60604).
Chain of Ubiquitin-conjugating enzyme E2 G2 (Homo sapiens) (P60604 whole entry): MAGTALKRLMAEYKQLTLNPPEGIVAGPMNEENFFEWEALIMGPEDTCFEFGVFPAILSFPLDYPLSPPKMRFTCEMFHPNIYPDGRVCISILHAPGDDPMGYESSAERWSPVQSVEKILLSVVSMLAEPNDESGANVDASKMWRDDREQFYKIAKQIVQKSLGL
Assay [46] is filed under the species Homo sapiens. The source holds these as a separate data set.
Assay [47] addresses Exportin-4 (Homo sapiens) (UniProt Q9C0E2).
Also: assay method not described here.

Chain of Trifunctional purine biosynthetic protein adenosine-3 (Homo sapiens) (P22102 whole entry): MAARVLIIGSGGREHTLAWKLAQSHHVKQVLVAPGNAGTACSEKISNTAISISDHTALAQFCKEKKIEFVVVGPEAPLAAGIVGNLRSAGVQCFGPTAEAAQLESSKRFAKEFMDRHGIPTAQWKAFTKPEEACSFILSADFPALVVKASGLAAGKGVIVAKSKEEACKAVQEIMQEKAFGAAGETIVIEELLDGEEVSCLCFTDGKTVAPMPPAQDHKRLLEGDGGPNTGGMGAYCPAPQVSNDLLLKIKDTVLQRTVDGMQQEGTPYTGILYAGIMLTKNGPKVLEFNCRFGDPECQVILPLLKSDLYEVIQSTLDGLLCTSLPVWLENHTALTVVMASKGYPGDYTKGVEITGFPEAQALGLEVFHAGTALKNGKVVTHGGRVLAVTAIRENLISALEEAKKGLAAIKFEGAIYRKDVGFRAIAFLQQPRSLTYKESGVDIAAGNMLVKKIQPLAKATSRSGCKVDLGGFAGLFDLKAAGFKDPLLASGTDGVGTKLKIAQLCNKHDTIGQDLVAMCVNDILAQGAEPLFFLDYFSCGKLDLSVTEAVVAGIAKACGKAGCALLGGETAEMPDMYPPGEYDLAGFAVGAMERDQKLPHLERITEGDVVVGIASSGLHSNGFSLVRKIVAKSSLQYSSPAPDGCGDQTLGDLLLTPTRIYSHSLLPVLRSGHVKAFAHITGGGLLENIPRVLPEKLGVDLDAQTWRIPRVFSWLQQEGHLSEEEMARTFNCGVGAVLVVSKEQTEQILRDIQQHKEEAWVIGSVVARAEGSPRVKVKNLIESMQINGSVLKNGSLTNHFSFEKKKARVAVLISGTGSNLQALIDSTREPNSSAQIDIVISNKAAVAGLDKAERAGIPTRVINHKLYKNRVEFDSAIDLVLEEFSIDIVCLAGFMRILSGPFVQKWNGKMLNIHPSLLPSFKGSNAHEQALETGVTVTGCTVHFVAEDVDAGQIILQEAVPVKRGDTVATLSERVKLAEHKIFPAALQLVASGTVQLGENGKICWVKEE
Chain of SWI/SNF-related matrix-associated actin-dependent regulator of chromatin subfamily A member 1 (Homo sapiens) (P28370 whole entry): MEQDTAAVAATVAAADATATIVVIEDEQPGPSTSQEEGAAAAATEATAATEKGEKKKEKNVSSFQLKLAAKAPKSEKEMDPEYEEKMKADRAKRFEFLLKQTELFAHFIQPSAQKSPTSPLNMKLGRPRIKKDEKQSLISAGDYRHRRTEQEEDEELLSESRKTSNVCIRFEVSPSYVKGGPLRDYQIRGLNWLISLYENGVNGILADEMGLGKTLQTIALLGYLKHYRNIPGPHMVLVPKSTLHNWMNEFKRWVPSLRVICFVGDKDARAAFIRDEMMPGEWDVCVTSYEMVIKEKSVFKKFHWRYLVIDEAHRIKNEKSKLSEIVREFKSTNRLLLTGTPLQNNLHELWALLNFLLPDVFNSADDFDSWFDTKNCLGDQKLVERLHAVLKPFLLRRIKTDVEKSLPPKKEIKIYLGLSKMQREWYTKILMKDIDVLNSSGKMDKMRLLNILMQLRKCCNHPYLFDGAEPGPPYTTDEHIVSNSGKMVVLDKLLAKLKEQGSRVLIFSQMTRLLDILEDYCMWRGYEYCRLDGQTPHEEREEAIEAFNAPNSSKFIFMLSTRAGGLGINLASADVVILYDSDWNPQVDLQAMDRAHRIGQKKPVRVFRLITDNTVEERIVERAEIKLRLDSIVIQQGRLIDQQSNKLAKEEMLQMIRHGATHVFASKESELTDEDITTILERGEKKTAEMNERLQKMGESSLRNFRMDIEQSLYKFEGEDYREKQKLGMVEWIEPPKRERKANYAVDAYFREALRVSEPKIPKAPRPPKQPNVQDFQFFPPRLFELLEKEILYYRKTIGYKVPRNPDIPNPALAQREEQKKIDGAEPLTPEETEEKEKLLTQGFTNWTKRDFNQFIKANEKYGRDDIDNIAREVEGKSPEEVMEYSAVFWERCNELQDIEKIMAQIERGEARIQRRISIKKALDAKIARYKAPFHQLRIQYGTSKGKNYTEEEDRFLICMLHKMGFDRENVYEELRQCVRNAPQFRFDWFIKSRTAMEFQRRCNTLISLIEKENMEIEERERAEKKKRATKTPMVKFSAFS

For the compound `Cc1ccc(C(=O)Nc2cccc(C(F)(F)F)c2)cc1Nc1nc(-c2cccnc2)nc2nn(C)cc12`, the ED50 turned out to be 0.0206 µM in assay [1]; 139 µM in assay [2]; 0.0504 µM in assay [3]; 62.4 µM in assay [4]; 2.9 µM in [5]; 0.0432 µM in [6]. Besides, the ED50 was found to be 0.136 µM in assay [7]; 1.69 µM in [8]; 0.686 µM in assay [9]; 0.09 µM in assay [10]; 26.8 µM in assay [11]; 0.0595 µM in assay [12]. The ED50 in assay [13] was found to be 0.0206 µM; in [14], 1.93 µM.

`Cc1ccc(C(=O)Nc2cccc(C(F)(F)F)c2)cc1Nc1nc(-c2cccnc2)nc2c1cnn2C`: the ED50 was 15.5 µM in assay [15]; 0.99 µM in assay [16]; 0.896 µM in assay [17]; 9.2 µM in assay [18]; 1.31 µM in [19]; 12.1 µM in [20]. Also, the ED50 in assay [21] is 0.00465 µM; in assay [22], 0.27 µM; in [23] it was 0.0122 µM; in assay [24], 95.8 µM; in [25] it was 3.15 µM; in assay [26] it was 5.47 µM. The ED50 in assay [27] was 1150 µM; in [28] it was 0.0188 µM; in assay [29], 0.00816 µM; in [30], 61.8 µM; in assay [31], 8.8 µM; in assay [32], 0.761 µM. Further, the ED50 in [33] came to 0.0567 µM; in assay [34] it was 0.0287 µM; in [35], 53.3 µM; in assay [36], 4.49 µM; in assay [37], 0.336 µM; in [38], 0.0394 µM. Moreover, the ED50 in assay [39] amounted to 2.98 µM; in [40], 120 µM; in assay [41], 0.0141 µM; in assay [42] it was 0.192 µM; in assay [43] it was 10.1 µM; in [44], 18 µM. The ED50 in assay [45] stood at 0.00416 µM; in assay [46] it was 0.000533 µM; in assay [47], 0.00594 µM.

Source of the values: ChEMBL document CHEMBL5649169 (ChemMedChem, 2018).
